In patent US20010051181A1, “NOVEL FORMULATIONS FOR THE TRANSDERMAL ADMINISTRATION OF ASIMADOLINE” (priority 1997, published 2001):
Counter-ions that a name gives are not always drawn.

Test: in vitro skin flux of asimadoline through human cadaver epidermis
Type: in vitro ADME
Details: representative range; depending on the drug form, permeation enhancer, and if an in-line adhesive is present
Protocol: Release of asimadoline from transdermal systems into aqueous medium was measured over 24 hours at 35° C. Each system had its exposed edges masked. The systems were then mounted on a Teflon® holder of a release rate rod using nylon mesh and nickel wire. A known volume of receptor solution (50 mM Na2PO4, pH 5.5) was then placed in a test tube and equilibrated at 35° C. The test tube was placed in a water bath and maintained at 35° C. The Teflon rod with attached system was then reciprocated within the test tube by attaching the rod to a motor which caused constant vertical mixing.
At given time intervals, the entire receptor solution was removed from the test tubes and replaced with an equal volume of fresh receptor solutions previously equilibrated at 35° C. The receptor solutions were stored in capped vials at 4° C. until assayed for asimadoline content by HPLC. From the drug concentration and the volume of the receptor solutions, the area of the system and the time interval, the release rate of the drug from the system was calculated as follows: (drug concentration×volume of receptor)/(area×time)=release rate (μg/cm^2 hr). […]
Transdermal systems set forth in Table 1 were prepared according to Example 1 and used to measure permeation through human cadaver skin. […] Asimadoline permeation through the epidermis was then measured according to the procedure set forth in Example 1. […]

Compound: CN(C(=O)C(c1ccccc1)c1ccccc1)[C@H](CN1CC[C@H](O)C1)c1ccccc1 [asimadoline hydrochloride, N-[(aS)-α-[[(3S)-3-Hydroxy-1-pyrrolidinyl]methyl]benzyl]-N-methyl-2,2-diphenylacetamide]
- in vitro skin flux through human skin: 0.2-10 mg/cm^2·hr
